Results reported in ChEMBL document CHEMBL1154415, “Population pharmacokinetics and pharmacodynamics of continuous versus short-term infusion of imipenem-cilastatin in critically ill patients in a randomized, controlled trial” (Antimicrob Agents Chemother, 2007).

Experiments:
[1] = Total clearance in nosocomial pneumonia patient at 1 g administered every 8 hrs for 3 days as shot-term iv infusion for 40 mins or at a loading dose of 1 g and maintenance dose of 2 g administered daily for 3 days as continuous iv infusion presence of cilastatin maintenance dose administered as continuous fusion at 8 hrs interval over 72 hrs in presence of cilastatin; format: ADME, organism-based; settings: human, in vivo
Homo sapiens = species on record: Homo sapiens; assay: Toxicity in nosocomial pneumonia patient assessed as induction of seizures in presence of cilastin; format: organism-based; settings: in vivo
Serum = assay: Protein binding in human serum by ultrafiltration technique in presence of cilastatin; format: ADME, cell-free
[2] = Plasma concentration in nosocomial pneumonia patient at loading dose of 1 g and maintenance dose of 2 g administered daily for 3 days as continuous infusion measured after 72 hrs in presence of cilastatin; format: ADME, organism-based; settings: human, iv

Compound: C[C@@H](O)[C@H]1C(=O)N2C(C(=O)O)=C(SCCN=CN)C[C@H]12 [IMIPENEM ANHYDROUS]
- clearance [1]: 205 mL/min
- Activity (Homo sapiens): Non-toxic
- Activity (Serum): 20%
- concentration at 72 h [2]: 8650 ng/mL
